Test results as given in the supplement of paper PMC11997997.

Experiments:
[1] = tested on: murine bone marrow-derived macrophages; test: area under cytotoxicity dose-response curve (AUC (% cytotoxicity x dose, relative)); higher = more cytotoxic; conditions: duration: 6 days; dose range: 0.13-80 uM, 8 points
Procedure, shortened: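 Values are the area under the cytotoxicity dose–response curve, calculated with GraphPad Prism version 10. Primary murine bone marrow-derived macrophages were exposed to final concentrations of 80–0.13 μM for 6 days, and viability was read by CellTiter-Glo luminescence with normalisation to vehicle and positive control wells.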

[2] = tested on: Mycobacterium tuberculosis CDC1551 (intracellular, in murine BMDM); test: area under intracellular growth-inhibition dose-response curve (AUC (% inhibition x dose, relative)); higher = more potent; conditions: duration: 6 days; dose range: 0.13-80 uM, 8 points
Procedure, shortened: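 The value is the area under the growth-inhibition dose–response curve, calculated in GraphPad Prism. Primary murine bone marrow-derived macrophages were seeded in 384-well opaque plates and, 24 h later, infected for 1 h with luciferase-expressing M. tuberculosis CDC1551 at multiplicity of infection 1. Cells were then exposed for 6 days to an 8-dose, 2.5-fold series (final 80–0.13 μM). Growth was read with the Bright-Glo luciferin assay and normalised to a reference drug control and to the lowest-concentration wells.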

Compound | area under cytotoxicity dose-response curve [1] | area under intracellular growth-inhibition dose-response curve [2]
COc1cc(/C=N/NC(=O)C23CC4CC(CC(C4)C2)C3)cc(Br)c1O | 23.8 | 154
c1ccc(-c2noc(CC3CCCCC3)n2)nc1 | 5.13 | 200
O=C1NC(=S)S/C1=C\C=C\c1ccc([N+](=O)[O-])o1 | 71.5 | 2.55
O=Cc1ccc2oc3nc4n(c(=O)c3c(=O)c2c1)CCCS4 | 95.3 | 111
Cc1c(Cl)c(C(F)F)nn1CC(=O)NC1C(=O)N2C(C(=O)O)=C(CSc3nnnn3C)CSC12 (centres undefined) | 121 | 151
O=C(Nc1ccc(S(=O)(=O)NC2=NCCCCC2)cc1)c1cccs1 | 3.27 | 43.4
O=C(/C=C/c1ccccc1Cl)NCc1ccco1 | 79.7 | 174
O=C(/C=C/c1ccc([N+](=O)[O-])o1)NNC(=O)c1ccc(F)cc1 | 51.9 | 19.6
FC(F)(Cl)c1nnc2ccc(Cl)nn12 | 26.5 | 126
CCOc1ccc(Br)cc1/C=N/NC(=O)c1ccncc1 | < 0 | 268
COc1ccccc1N1C(C)=CC(=Cc2sc3ccccc3[n+]2C)C=C1C.[I-] | 25.9 | 119
CN(C)S(=O)(=O)c1ccc(C(=O)OCC(=O)NC(=O)NC2CCCC2)cc1 | < 0 | 165
CC(C)Oc1cccc(C(=O)N2CCCC2)c1 | 54.6 | 43.1
N#CCc1ccc(NC(=O)/C=C/c2ccc([N+](=O)[O-])o2)cc1 | 124 | 35
CCCn1nnc(NC(=S)NC(=O)c2ccccc2OC)n1 | 25.9 | 64.2
C[C@@H]1C2CC(C/C2=N\NC(=O)c2ccncc2)C1(C)C (some centres undefined) | < 0 | 260
CCOc1cc(/C=N\Nc2nc(-c3ccc(C)cc3)c(NC(C)=O)s2)ccc1O | < 0 | 256
COC(=O)C1C(O)C(C)C(O)C(C)/C=C\C=C(/C)C(=O)Nc2c(C)c(OC(C)=O)c3c(c2O)C(=O)C(C)=C2OCOC(=C23)/C(C)=C/C(C)(O)C(O)C(C)C1O (centres undefined) | 11.5 | 216
O=C(CCCOc1ccc(Br)cc1)NNC(=O)c1ccncc1 | 24.1 | 256
O=C(NCc1cccs1)c1ccc(Cl)s1 | 2.8 | 212
COc1ccc(/C(C)=N/NC(=O)c2ccncc2)cc1 | 151 | 229
O=C(NC1CCCCCCC1)c1ccc(Br)o1 | 38.5 | 251
CC(C)(C)C(=O)/C(=C/c1cccc([N+](=O)[O-])c1)n1cncn1 | 157 | 8.55
C/C(CC(C)(C)C1CCCCC1)=N\NC(N)=S | 119 | 238

Compound | area under cytotoxicity dose-response curve [1] | area under intracellular growth-inhibition dose-response curve [2]
COc1ccc(/C=N/NC(=O)c2ccncc2)cc1COc1ccc(NC(C)=O)cc1 | 14.4 | 272
CCCC12CN3CCN(CC(C3)/C1=N\NC(=O)c1ccncc1)C2 | 28.1 | 233
O=C(/C=C/c1cccs1)N1CCCCC1 | < 0 | 243
CCc1ccc(NC(=O)NC2CCCCCCC2)cc1 | 85.4 | 120
CC1CCN(C(=O)C2CCC(CNc3c(N4CCCCC4)c(=O)c3=O)CC2)CC1 (centres undefined) | 8.86 | 87.1
O=C(NCc1cccc(C(F)(F)F)c1)c1ccc[nH]1 | 2.14 | 91
CCOC(=O)[N-]c1c[n+](N2CCOCC2)no1 | 41.1 | 28
CCOc1ccc(CCNC(=O)c2ccc3c(=O)[nH]c4c(C(=O)NC(C)C)sc(=S)n4c3c2)cc1 | 10.1 | 225
CCOC(=O)c1oc2nc(C(C)C)c3c(c2c1N)CC(C)(C)OC3 | 80.3 | 124
C/C(CC(=O)Nc1cccc(C(F)(F)F)c1)=N\NC(=O)c1ccncc1 | < 0 | 212
O=C(/C=C/c1ccco1)c1ccc(NC(=O)C23CC4CC(CC(C4)C2)C3)cc1 | < 0 | 260
O=C(N/N=C/c1ccc([N+](=O)[O-])o1)C(O)c1ccccc1 (centres undefined) | 72.7 | 123
O=C(C=Cc1cccs1)c1ccc(Cl)s1 | 8.27 | 235
O=C(NCc1ccncc1)c1cccc(S(=O)(=O)N2CCc3ccccc32)c1 | 39.9 | < 0
O=C(/C=C/c1cccs1)NC1CCCC1 | 39.1 | 114
CC1CC(C)CN(C(=O)C2CCC(CNc3c(N4CCCCC4)c(=O)c3=O)CC2)C1 (centres undefined) | 0.615 | 125
COc1ccc(/C=C/C(=O)c2ccc([N+](=O)[O-])o2)cc1OC | 118 | 3.95
CN(C)C1C(=O)C(C(N)=O)=C(O)C2(O)C(O)=C3C(=O)c4c(O)cccc4C(C)(O)C3C(O)C12 (centres undefined) | 22.3 | 166
Cl.c1ccc(-c2nnc(CN3CCCCC3)o2)cc1 | 36 | 267
O=C(NC1C2CC3CC(C2)CC1C3)c1ccc2c(c1)OCO2 (centres undefined) | 123 | 226
O=C(NCC1CC1(Cl)Cl)Nc1ccc(Cl)c(Cl)c1 (centres undefined) | 111 | 239
Cc1cc(/C=N/NC(N)=S)c(C)n1-c1ccc(Br)cc1 | < 0 | 257
CCOc1c(Cl)cc(/C=N/NC(N)=S)cc1OC | < 0 | 266
